# Test system: S. aureus
# Test: Vapor-phase triclosan delivery to model wound (inoculated Petri dishes), bacterial growth after incubation
# Format: cell-based
# Settings: for Bacterial Growth after 37° C. incubation; Exposure to wound treatment system: 3 hr / Bacterial Growth after 37° C. incubation; Exposure to wound treatment system: Additional 17 hr: inoculated
# Procedure: The experimental data were obtained with a model air-activated heating elements (7 Hour Hand Warmers, Grabber, Grand Rapids, Mich.) surrounding a model wound represented by inoculated Petri dishes with 5 ml of 45C TSA agar containing about 6 log CFU/ml S. aureus. For testing, from 1 to 8 triclosan strips, each containing 9 mg of triclosan, were positioned on heating elements in proximity to inoculated Petri dishes. The assembly was covered creating an enclosed compartment around the inoculated Petri dishes, with triclosan patches within thusly formed compartment on the heating elements but not in contact with the inoculated Petri dishes. The inoculated Petri dishes were taken out after 3 hr and 17 hour exposure at ambient temperature (of which heating packs provided about 7 hours of heat) and incubated at 37° C. for 24 hr to allow the bacterial colonies, if any, to grow and be evaluated. Controls tested included the same model without any heating elements; heating elements in a system with no triclosan; no heating, no triclosan for confirming inoculation and bacterial growth, no heating no triclosan no inoculation for confirming agar was not contaminated.
smiles,measurement,setting,value
Oc1cc(Cl)ccc1Oc1ccc(Cl)cc1Cl [triclosan],Bacterial Growth after 37° C. incubation; Exposure to wound treatment system: 3 hr,"0 heating elements (no heat), 1 triclosan patch, 3 hr exposure",Full growth
same,Bacterial Growth after 37° C. incubation; Exposure to wound treatment system: Additional 17 hr,"0 heating elements (no heat), 1 triclosan patch, 17 hr exposure",Full
same,Bacterial Growth after 37° C. incubation; Exposure to wound treatment system: 3 hr,"0 heating elements (no heat), 2 triclosan patches, 3 hr exposure",Full growth
same,Bacterial Growth after 37° C. incubation; Exposure to wound treatment system: Additional 17 hr,"0 heating elements (no heat), 2 triclosan patches, 17 hr exposure",Full
same,Bacterial Growth after 37° C. incubation; Exposure to wound treatment system: 3 hr,"0 heating elements (no heat), 4 triclosan patches, 3 hr exposure",Partial
same,Bacterial Growth after 37° C. incubation; Exposure to wound treatment system: Additional 17 hr,"0 heating elements (no heat), 4 triclosan patches, 17 hr exposure",Minimal
same,Bacterial Growth after 37° C. incubation; Exposure to wound treatment system: 3 hr,"0 heating elements (no heat), 8 triclosan patches, 3 hr exposure",partial growth
same,Bacterial Growth after 37° C. incubation; Exposure to wound treatment system: Additional 17 hr,"0 heating elements (no heat), 8 triclosan patches, 17 hr exposure",full antibacterial effect and NONE
same,Bacterial Growth after 37° C. incubation; Exposure to wound treatment system: 3 hr,"4 heating elements, 1 triclosan patch, 3 hr exposure",NONE
same,Bacterial Growth after 37° C. incubation; Exposure to wound treatment system: Additional 17 hr,"4 heating elements, 1 triclosan patch, 17 hr exposure",NONE
same,Bacterial Growth after 37° C. incubation; Exposure to wound treatment system: 3 hr,"4 heating elements, 2 triclosan patches, 3 hr exposure (tests 3 and 4)",NONE
same,Bacterial Growth after 37° C. incubation; Exposure to wound treatment system: Additional 17 hr,"4 heating elements, 2 triclosan patches, 17 hr exposure (tests 3 and 4)",NONE
same,Bacterial Growth after 37° C. incubation; Exposure to wound treatment system: 3 hr,"4 heating elements, 4 triclosan patches, 3 hr exposure",NONE
same,Bacterial Growth after 37° C. incubation; Exposure to wound treatment system: Additional 17 hr,"4 heating elements, 4 triclosan patches, 17 hr exposure",NONE
same,Bacterial Growth after 37° C. incubation; Exposure to wound treatment system: 3 hr,"4 heating elements, 8 triclosan patches (9 mg each), 3 hr exposure",NONE
same,Bacterial Growth after 37° C. incubation; Exposure to wound treatment system: Additional 17 hr,"4 heating elements, 8 triclosan patches (9 mg each), 17 hr exposure",NONE
same,bactericidal effect on S. aureus with vapor transfer of triclosan,"in presence of heat elements, 1 strip of triclosan",full bactericidal effect
same,inhibition of bacterial growth,"tests #1-4, 8: 4 heating elements, from 1 to 8 triclosan patches",full inhibition of bacterial growth
same,antibacterial effect,"without heat elements, most tests",lack of antibacterial effect

# — patent publication US11504268B2, “Wound treatment system” (Ethicon, Inc., priority 2018, dated 2022)
